In this assay the test system is Dukin-Hartley guinea pigs. The assay is described as follows: Bronchodilating activity in vivo (Konzett and Rossler), histamine bronchospasm. The conditions noted are these: Cavia porcellus, iv, effective dose for 50% inhibition, anaesthetized guinea pigs. Also on record: species or system guinea pig. As for the experimental part:
The bronchodilating activity was measured in vivo by the method of Konzett H. and Rossler R. (Arch. Exp. Pathol. Pharmak., 1940, 195, p. 71 to 74) and Duhault J. et al. (Arzneim. Forsch./Drug. res., 1987, 37, p. 1353 to 1362).
Measurement of the bronchodilating activity:
Dukin-Hartley guinea pigs (400-500 g) are prepared according to the methodology described by Konzett and Rossler. The animals are anaesthetized by an intraperitoneal injection of urethane (1.5 g/kg) and a tracheotomy is prepared for artificial respiration (45 cycles/min; respiratory volume 10 ml/kg).
The animal is connected to a respiratory pump, which is adjusted to deliver a volume of 1 ml per 100 g of body weight of the guinea pig. It is connected to a recorder via a pressure sensor.
A catheter is placed in the jugular for the I.V. injections.
An I.V. injection of gallamine and propanolol is carried out. After stabilizing the pulmonary pressure for 30 minutes, an I.V. injection of histamine is carried out every 10 minutes until reproducibility is achieved; at that point, the test product is injected 10 minutes after the last spasm.

The mark [1] stands for this setting: 5 min, I.V. histamine tested 5 minutes after injection of the product, read-out: Bronchospam ED50 at 5 min.
Setting [2] is: 0.25 h, I.V. histamine tested 15 minutes after injection of the product, read-out: Bronchospam ED50 at 15 min.

Read-outs that look alike come from different tables or passages of the source.

As a reminder, the ED50 is the dose that gives a 50% effect, or the effect in half of the subjects. In the case of `CC1(C)C=C(c2cccc[n+]2[O-])c2cc(Cl)ccc2OC1` [Compound 91, 7-Chloro-3,3-methyl-(2-pyridyl N-oxide)-2,3-dihydro-1-benzoxepine], the median effective dose (ED50) under setting [1] stood at 0.1 mg/kg.

Take `CC1(C)C=C(c2cccc[n+]2[O-])c2cc(C(F)(F)F)ccc2OC1` [Compound 100, 3,3-Dimethyl-5-(2-pyridyl N-oxide)-7-trifluoromethyl-2,3-dihydro-1-benzoxepine]: the ED50 stood at 0.069 mg/kg under setting [1] and 0.101 mg/kg under setting [2].

Regarding `CC1(C)C=C(c2cccc[n+]2[O-])c2cc(C#N)ccc2OC1` [Compound 104, 7-Cyano-3,3-dimethyl-5-(2-pyridyl N-oxide)-2,3-dihydro-1-benzoxepine], the ED50 runs as follows: under setting [1], 0.038 mg/kg; under setting [2], 0.21 mg/kg.

Take `CC1(C)C=C(c2cccc[n+]2[O-])c2cc(C#N)ccc2CC1` [Compound 109, 8-Cyano-3,3-dimethyl-1-(2-pyridyl N-oxide)-4,5-dihydro-3H-benzo [f]cycloheptane]: the ED50 runs as follows: under setting [1], 0.086 mg/kg; under setting [2], 0.331 mg/kg.

With `CC1(C)C=C(c2cccc[n+]2[O-])c2cc(Cl)c(Cl)cc2OC1` [Compound 111, 7,8-Dichloro-3,3-dimethyl-5-(2-pyridyl N-oxide)-2,3-dihydro-1-benzoxepine], the ED50 is 0.049 mg/kg under setting [1] and 0.1 mg/kg under setting [2].

For `CC1(C)C=C(c2cccc[n+]2[O-])c2cc(F)c(F)cc2OC1` [Compound 114, 7,8-Difluoro-3,3-dimethyl-5-(2-pyridyl N-oxide) -2,3-dihydro-1-benzoxepine], the ED50 under setting [1] turned out to be 0.04 mg/kg and the ED50 under setting [2] was 0.3 mg/kg.

As to `Cc1cc2c(cc1C#N)C(c1cccc[n+]1[O-])=CC(C)(C)CO2` [Compound 118, 7-Cyano-3,3,8-trimethyl-5-(2-pyridyl N-oxide)-2,3-dihydro-1-benzoxepine], the ED50 worked out at 0.15 mg/kg under setting [1] and 0.2 mg/kg under setting [2].

With `Cc1cc2c(cc1C#N)OCC(C)(C)C=C2c1cccc[n+]1[O-]` [Compound 119], the ED50 by setting is: under setting [1], 0.31 mg/kg; under setting [2], 0.53 mg/kg.

Source of the values: patent publication US5652252A, “Benzocycloheptenes” (Merck Patent Gesellschaft Mit Beschrankter Haftung, priority 1992, dated 1997).
